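All cell lines were grown in 96-well plates and treated with compound for 48 hours. Abbreviation: GI50, concentration required for 50% inhibition of growth.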 Activity calls are given as the source filed them. Rule as the data show it: active = GI50 up to about 1.1 µM and inactive = higher.
How the values were obtained:
Test in all cases: inhibition of tumour cell growth, NCI panel, 48 h
SR = test system: SR
SNB-19 = test system: SNB-19
HOP-62 = test system: HOP-62
MDA-N = test system: MDA-N
EKVX = test system: EKVX
UACC-257 = test system: UACC-257
HCT-15 = test system: HCT-15
NCI-H23 = test system: NCI-H23
SF-539 = test system: SF-539
SK-MEL-28 = test system: SK-MEL-28
IGROV-1 = test system: IGROV-1
UO-31 = test system: UO-31
Hs-578T = test system: Hs-578T
CAKI-1 = test system: CAKI-1
SF-268 = test system: SF-268
K562 = test system: K562
OVCAR-5 = test system: OVCAR-5
NCI-H522 = test system: NCI-H522
NCI/ADR-RES = test system: NCI/ADR-RES
HOP-92 = test system: HOP-92

Row | SMILES | GI50 (SR) | GI50 (SNB-19) | GI50 (HOP-62) | GI50 (MDA-N) | GI50 (EKVX) | GI50 (UACC-257) | GI50 (HCT-15) | GI50 (NCI-H23) | GI50 (SF-539) | GI50 (SK-MEL-28) | GI50 (IGROV-1) | GI50 (UO-31) | GI50 (Hs-578T) | GI50 (CAKI-1) | GI50 (SF-268) | GI50 (K562) | GI50 (OVCAR-5) | GI50 (NCI-H522) | GI50 (NCI/ADR-RES) | GI50 (HOP-92)
1 | CCOP(=O)(OCC)/C(C#N)=C/c1c[nH]c2ccccc12 | > 100 µM (inactive) | > 100 µM (inactive) | > 100 µM (inactive) | > 100 µM (inactive) | > 100 µM (inactive) | > 100 µM (inactive) | > 100 µM | > 100 µM (inactive) | > 100 µM (inactive) | > 100 µM (inactive) | > 100 µM (inactive) | 45.8 µM (inactive) | > 100 µM (inactive) | > 100 µM (inactive) | > 100 µM (inactive) | > 100 µM (inactive) | > 100 µM (inactive) | > 100 µM (inactive) | 53 µM (inactive) | > 100 µM (inactive)
2 | CC(C)Cn1cnc2c(NCC(C)O)nc3ccccc3c21 (stereo not given) | 84.5 µM (inactive) | > 100 µM (inactive) | > 100 µM (inactive) | > 100 µM (inactive) | 29 µM (inactive) | > 100 µM (inactive) | 78.3 µM | > 100 µM (inactive) | > 100 µM (inactive) | > 100 µM (inactive) | 36.8 µM (inactive) | 38.9 µM (inactive) | 45.7 µM (inactive) | 66.4 µM (inactive) | > 100 µM (inactive) | 61.4 µM (inactive) | > 100 µM (inactive) | > 100 µM (inactive) | > 100 µM (inactive) | 27.9 µM (inactive)
3 | c1ccc(-c2nn(-c3ccccc3)[n+](-c3ccccc3)n2)cc1 [TETRAZOLIUM RED] | 3.37 µM (inactive) | > 35.6 µM (inactive) | 19.5 µM (inactive) | 12.9 µM (inactive) | 2.4 µM (inactive) | 2.85 µM (inactive) | > 100 µM | 7.29 µM (inactive) | 33 µM (inactive) | 19.4 µM (inactive) | 3.1 µM (inactive) | > 100 µM (inactive) | 31.6 µM (inactive) | > 100 µM (inactive) | 14.5 µM (inactive) | 18.6 µM (inactive) | 35.7 µM (inactive) | > 37.9 µM (inactive) | > 100 µM (inactive) | 24.1 µM (inactive)
4 | O=C(O)c1ccc(C(=O)O)c(C(=O)Nc2ccc3c(c2)C(=O)c2ccccc2-3)c1 | > 100 µM (inactive) | > 100 µM (inactive) | > 100 µM (inactive) | > 100 µM (inactive) | > 100 µM (inactive) | > 100 µM (inactive) | > 100 µM | > 100 µM (inactive) | > 100 µM (inactive) | > 100 µM (inactive) | > 100 µM (inactive) | > 100 µM (inactive) | > 100 µM (inactive) | > 100 µM (inactive) | > 100 µM (inactive) | > 100 µM (inactive) | > 100 µM (inactive) | > 100 µM (inactive) | > 100 µM (inactive) | > 100 µM (inactive)
5 | COc1ccc(N/N=C2\C3=C(CCC(C)(C)O3)C(=O)c3ccccc32)cc1 | 12.6 µM (inactive) | 21.9 µM (inactive) | 20.9 µM (inactive) | 15.6 µM (inactive) | 18.1 µM (inactive) | 19.7 µM (inactive) | 13.7 µM | 18 µM (inactive) | 24.4 µM (inactive) | 22.2 µM (inactive) | 15.2 µM (inactive) | 18.1 µM (inactive) | 19.1 µM (inactive) | 20 µM (inactive) | 15.3 µM (inactive) | 15.9 µM (inactive) | 19.4 µM (inactive) | 17 µM (inactive) | 19.6 µM (inactive) | 21.1 µM (inactive)
6 | CC(C)[Si](OC1=C(C(=O)Nc2ccccc2Cl)CCCCC1)(C(C)C)C(C)C | > 100 µM (inactive) | > 100 µM (inactive) | > 100 µM (inactive) | > 100 µM (inactive) | > 100 µM (inactive) | > 100 µM (inactive) | > 100 µM | > 100 µM (inactive) | > 100 µM (inactive) | > 100 µM (inactive) | > 100 µM (inactive) | > 100 µM (inactive) | > 100 µM (inactive) | > 100 µM (inactive) | > 100 µM (inactive) | > 100 µM (inactive) | 97.9 µM (inactive) | > 100 µM (inactive) | > 100 µM (inactive) | > 100 µM (inactive)
7 | CC(C)(C)OC(=O)CC(NC(=O)OC(C)(C)C)C(=O)N[C@@H]1CCCC[C@H]1C(=O)OCc1ccccc1 (stereo not given in full) | 29.2 µM (inactive) | 33.3 µM (inactive) | 27.8 µM (inactive) | 32.1 µM (inactive) | 62.2 µM (inactive) | 30.2 µM (inactive) | 14.8 µM | 29.3 µM (inactive) | 24.5 µM (inactive) | > 100 µM (inactive) | 37 µM (inactive) | 24.2 µM (inactive) | 15.7 µM (inactive) | 38.4 µM (inactive) | 77.3 µM (inactive) | 18.4 µM (inactive) | 26.2 µM (inactive) | > 10 µM (inactive) | 33.3 µM (inactive) | 53.2 µM (inactive)
8 | NS(=O)(=O)c1ccc(NC(=O)N/N=C/c2ccccc2O)cc1 | 22.2 µM (inactive) | 38.6 µM (inactive) | 50.7 µM (inactive) | 22.1 µM (inactive) | > 100 µM (inactive) | 58.6 µM (inactive) | 48 µM | 80.7 µM (inactive) | 41.9 µM (inactive) | 85.1 µM (inactive) | 58.7 µM (inactive) | 60.7 µM (inactive) | 60.5 µM (inactive) | 94.4 µM (inactive) | 49 µM (inactive) | 40.8 µM (inactive) | > 100 µM (inactive) | 22.4 µM (inactive) | 68.4 µM (inactive) | 94.4 µM (inactive)
9 | CCC(C)C(C(=O)N/N=C1/SCC(=O)N1c1ccccc1)C(=O)N/N=C1/SCC(=O)N1c1ccccc1 (stereo not given) | 40.6 µM (inactive) | > 100 µM (inactive) | 79.3 µM (inactive) | 27.2 µM (inactive) | > 100 µM (inactive) | > 100 µM (inactive) | > 100 µM | 36.6 µM (inactive) | > 100 µM (inactive) | 16.9 µM (inactive) | > 100 µM (inactive) | > 100 µM (inactive) | 32.5 µM (inactive) | > 100 µM (inactive) | 44.9 µM (inactive) | > 100 µM (inactive) | > 100 µM (inactive) | 56.9 µM (inactive) | > 100 µM (inactive) | 19 µM (inactive)
10 | CCO/C=N/C1=C(C#N)SC2=N/C(=C\c3ccccc3)C(=O)N21 | 39.4 µM (inactive) | > 100 µM (inactive) | > 100 µM (inactive) | > 100 µM (inactive) | 77.3 µM (inactive) | > 100 µM (inactive) | > 100 µM | > 100 µM (inactive) | > 100 µM (inactive) | > 100 µM (inactive) | > 100 µM (inactive) | > 100 µM (inactive) | > 100 µM (inactive) | > 100 µM (inactive) | > 100 µM (inactive) | 41.9 µM (inactive) | > 100 µM (inactive) | > 100 µM (inactive) | > 100 µM (inactive) | > 100 µM (inactive)
11 | O=C1C(c2cnc3ccccc3n2)=C(O)c2ccccc21 | > 59.7 µM (inactive) | > 85.3 µM (inactive) | 43.4 µM (inactive) | > 61.4 µM (inactive) | 19.1 µM (inactive) | > 71 µM (inactive) | 1.16 µM | > 100 µM (inactive) | > 100 µM (inactive) | > 82.4 µM (inactive) | > 83 µM (inactive) | > 100 µM (inactive) | > 57.7 µM (inactive) | > 24.5 µM (inactive) | > 93.8 µM (inactive) | > 86.9 µM (inactive) | > 70.1 µM (inactive) | > 72.9 µM (inactive) | > 100 µM (inactive) | > 100 µM (inactive)
12 | COc1cc(NC(C)c2ccc3c(c2)OCCO3)cc(OC)c1OC (stereo not given) | 10.4 µM (inactive) | 95.5 µM (inactive) | 58.7 µM (inactive) | 5.4 µM (inactive) | 33 µM (inactive) | 28.7 µM (inactive) | 24.4 µM | 18.9 µM (inactive) | 22.1 µM (inactive) | 56.4 µM (inactive) | 59.3 µM (inactive) | 56.9 µM (inactive) | 20.9 µM (inactive) | 46 µM (inactive) | 26.7 µM (inactive) | 8.97 µM (inactive) | 46.6 µM (inactive) | 17.5 µM (inactive) | 22.9 µM (inactive) | > 100 µM (inactive)
13 | COC1/C=C\C=C(/C)C(=O)NC2=CC(=O)C(O)=C(CC(C)CC(OC)C(O)C(C)/C=C(\C)C1OC(N)=O)C2=O (stereo not given) | 0.0406 µM (active) | 15.8 µM (inactive) | 13.7 µM (inactive) | 0.0364 µM (active) | 10.8 µM (inactive) | 0.384 µM (active) | 2.26 µM | 0.482 µM (active) | 0.984 µM (active) | 0.316 µM (active) | 0.757 µM (active) | 3.95 µM (inactive) | 3.13 µM (inactive) | 2.55 µM (inactive) | 5.7 µM (inactive) | 0.137 µM (active) | 11.5 µM (inactive) | 0.0596 µM (active) | 64.6 µM (inactive) | 0.382 µM (active)
14 | O=[N+]([O-])c1ccc2nc3ccc([N+](=O)[O-])cn3c2c1 | > 100 µM (inactive) | 36.1 µM (inactive) | 17.6 µM (inactive) | > 100 µM (inactive) | 29.4 µM (inactive) | > 100 µM (inactive) | > 100 µM | > 100 µM (inactive) | 52.6 µM (inactive) | > 100 µM (inactive) | 97.1 µM (inactive) | 29.9 µM (inactive) | 27.4 µM (inactive) | 33 µM (inactive) | 30.5 µM (inactive) | > 100 µM (inactive) | 32.5 µM (inactive) | 23.7 µM (inactive) | > 100 µM (inactive) | > 100 µM (inactive)
